Earlier results on one substance are cited in US20260240147A1, “MANCOZEB NANOSUSPENSION AND PREPARATION METHOD THEREOF” (priority 2022, published 2026).

Take “manganese ethylene bis(dithiocarbamate) polymeric complex with zinc salt coordination compound [mancozeb]”: the “solubility in most organic solvents” value was “insoluble”. Besides, the solubility in water (pH 7.5, 25° C.) is 6.2 µg/mL.
